27 compounds from patent US8575163B2, “Pyrrolopyridinylpyrimidin-2-ylamine derivatives” (Merck Patent GmbH, priority 2009, dated 2013) can be followed below.

This assay concerns the target T1, PDK1 (Homo sapiens, UniProt O15530).
T1 construct: His6 (N)
T1 sequence (O15530 51-556 limits assumed): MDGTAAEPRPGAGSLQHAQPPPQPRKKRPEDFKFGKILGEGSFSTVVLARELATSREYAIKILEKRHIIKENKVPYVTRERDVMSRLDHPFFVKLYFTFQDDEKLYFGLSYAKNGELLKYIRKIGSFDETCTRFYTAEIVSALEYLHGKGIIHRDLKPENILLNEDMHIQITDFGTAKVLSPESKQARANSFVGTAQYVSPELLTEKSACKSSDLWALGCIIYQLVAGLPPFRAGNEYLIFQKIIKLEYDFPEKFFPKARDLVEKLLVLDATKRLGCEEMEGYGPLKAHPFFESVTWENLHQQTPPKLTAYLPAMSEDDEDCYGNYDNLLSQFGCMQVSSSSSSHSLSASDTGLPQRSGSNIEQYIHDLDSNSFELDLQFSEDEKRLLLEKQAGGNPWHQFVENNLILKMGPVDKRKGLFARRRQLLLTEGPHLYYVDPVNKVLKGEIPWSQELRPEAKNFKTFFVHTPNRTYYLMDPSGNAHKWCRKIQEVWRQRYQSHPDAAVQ
As to the kind of experiment: Test for the inhibition of PDK1 (flashplate, 33P-ATP). In kind it is biochemical. The settings on record: His6-PDK1 3.4 nM, 4 μM ATP, 30° C., 60 min. As for the experimental part:
The experimental batches are carried out in a flashplate system with 384 wells/microtitration plate.
In each case, the PDK1 sample His6-PDK1(1-50)(3.4 nM), the PDK1 substrate biotin-bA-bA-[…] (400 nM), 4 μM ATP (with 0.2 μCi of ^33 P-ATP/well) and the test substance in 50 μl of conventional experimental solution per well are incubated at 30° C. for 60 min. The test substances are employed in corresponding concentrations (if desired in a dilution series). The control is carried out without test substance. The reaction is stopped using standard methods and washed. The activity of the kinase is measured via the incorporated radioactivity in top count. In order to determine the non-specific kinase reaction (blank value), the experimental batches are carried out in the presence of 100 nM staurosporin.
The radioactivity (decompositions per minute) of the blank value (no use of test substance in the presence of staurosporin) is subtracted from all other radioactivity values. The controls (kinase activity without test substance) are set equal to 100 percent and all other radioactivity values (after subtracting the blank value) are expressed set in relation thereto (for example in % of the control).
[formula] IC50 values (50% inhibition) are determined with the aid of statistics programmes, such as, for example, RS1.

What is called IC50 is the concentration at which inhibition is half-maximal. A low value points to inhibition by little substance. Regarding `Cn1cc(-c2cnc3[nH]cc(-c4cc(C(C)(O)c5ccccc5F)nc(N)n4)c3c2)cn1` (racemic) [A102, 1-{2-amino-6-[5-(1-methyl-1H-pyrazol-4-yl)-1H-pyrrolo[2,3-b]pyridin-3-yl]-pyrimidin-4-yl}-1-(2-fluorophenyl)ethanol], half-maximal inhibition (IC50) required 10 nM.

Compound `CCC(O)(c1ccncc1)c1cc(-c2c[nH]c3ncc(-c4cnn(C)c4)cc23)nc(N)n1` (single isomer, unassigned) [A20, 1-{2-amino-6-[5-(1-methyl-1H-pyrazol-4-yl)-1H-pyrrolo[2,3-b]pyridin-3-yl]-pyrimidin-4-yl}-1-pyridin-4-ylpropan-1-ol] had an IC50 of 2.2 nM.

In turn, `CCC(O)(c1ccncc1)c1cc(-c2c[nH]c3ncc(-c4cnn(C)c4)cc23)nc(N)n1` (single isomer, unassigned) [A21, 1-{2-amino-6-[5-(1-methyl-1H-pyrazol-4-yl)-1H-pyrrolo[2,3-b]pyridin-3-yl]-pyrimidin-4-yl}-1-pyridin-4-ylpropan-1-ol] returned an IC50 of 36 nM.

As to `CCC(O)(c1cccc(F)c1)c1cc(-c2c[nH]c3ncc(-c4ccc(CO)cc4)cc23)nc(N)n1` (single isomer, unassigned) [A33, 1-{2-amino-6-[5-(4-hydroxymethylphenyl)-1H-pyrrolo[2,3-b]pyridin-3-yl]-pyrimidin-4-yl}-1-(3-fluorophenyl)propan-1-ol], the IC50 worked out at 170 nM.

As for `CCC(O)(c1ccncc1)c1cc(-c2c[nH]c3ncc(-c4cn[nH]c4)cc23)nc(N)n1` (single isomer, unassigned) [A43, 1-{2-amino-6-[5-(1H-pyrazol-4-yl)-1H-pyrrolo[2,3-b]pyridin-3-yl]pyrimidin-4-yl}-1-pyridin-4-ylpropan-1-ol], the IC50 stood at 1.6 nM.

With `CCC(O)(c1ccncc1)c1cc(-c2c[nH]c3ncc(-c4cn[nH]c4)cc23)nc(N)n1` (single isomer, unassigned) [A44, 1-{2-amino-6-[5-(1H-pyrazol-4-yl)-1H-pyrrolo[2,3-b]pyridin-3-yl]pyrimidin-4-yl}-1-pyridin-4-ylpropan-1-ol], the IC50 stood at 17 nM.

For `Cn1cc(-c2cnc3[nH]cc(-c4cc(C(C)(O)c5cccnc5)nc(N)n4)c3c2)cn1` (single isomer, unassigned) [A57, 1-{2-amino-6-[5-(1-methyl-1H-pyrazol-4-yl)-1H-pyrrolo[2,3-b]pyridin-3-yl]-pyrimidin-4-yl}-1-pyridin-3-ylethanol], the IC50 turned out to be 28 nM.

Consider `Cn1cc(-c2cnc3[nH]cc(-c4cc(C(C)(O)c5cccnc5)nc(N)n4)c3c2)cn1` (single isomer, unassigned) [A58, 1-{2-amino-6-[5-(1-methyl-1H-pyrazol-4-yl)-1H-pyrrolo[2,3-b]pyridin-3-yl]-pyrimidin-4-yl}-1-pyridin-3-ylethanol], for which the IC50 was determined as 85 nM.

Compound `CNc1nc(-c2c[nH]c3ncc(-c4cnn(CCO)c4)cc23)cc(C(C)(O)c2ccccc2)n1` (single isomer, unassigned) [A90, 1-(6-{5-[1-(2-hydroxyethyl)-1H-pyrazol-4-yl]-1H-pyrrolo[2,3-b]pyridin-3-yl}-2-methylaminopyrimidin-4-yl)-1-phenylethanol] came in with an IC50 of 21 nM.

In turn, `CNc1nc(-c2c[nH]c3ncc(-c4cnn(CCO)c4)cc23)cc(C(C)(O)c2ccccc2)n1` (single isomer, unassigned) [A91, 1-(6-{5-[1-(2-hydroxyethyl)-1H-pyrazol-4-yl]-1H-pyrrolo[2,3-b]pyridin-3-yl}-2-methylaminopyrimidin-4-yl)-1-phenylethanol] returned an IC50 of 50 nM.

`CO[C@](C)(c1ccccc1)c1cc(-c2c[nH]c3ncc(-c4cnn(CCO)c4)cc23)nc(N)n1` (single isomer, unassigned) [A92] returned an IC50 of 35 nM.

`CO[C@@](C)(c1ccccc1)c1cc(-c2c[nH]c3ncc(-c4cnn(CCO)c4)cc23)nc(N)n1` (single isomer, unassigned) [A93] showed an IC50 of 48 nM.

`CC(O)(c1ccccc1)c1cc(-c2c[nH]c3ncc(-c4cnn(CCO)c4)cc23)nc(N)n1` (single isomer, unassigned) [A96, 1-(2-amino-6-{5-[1-(2-hydroxyethyl)-1H-pyrazol-4-yl]-1H-pyrrolo[2,3-b]-pyridin-3-yl}pyrimidin-4-yl)-1-phenylethanol] registered an IC50 of 18 nM.

`CC(O)(c1ccccc1)c1cc(-c2c[nH]c3ncc(-c4cnn(CCO)c4)cc23)nc(N)n1` (single isomer, unassigned) [A97, 1-(2-amino-6-{5-[1-(2-hydroxyethyl)-1H-pyrazol-4-yl]-1H-pyrrolo[2,3-b]-pyridin-3-yl}pyrimidin-4-yl)-1-phenylethanol] returned a 50% inhibitory concentration (IC50) of 38 nM.

`COCOC(C)(c1cccc(F)c1)c1nc(N)nc(-c2c[nH]c3ncc(Br)cc23)c1F` (stereo not drawn) [A12, 4-(5-bromo-1H-pyrrolo[2,3-b]pyridin-3-yl)-5-fluoro-6-[1-(3-fluorophenyl)-1-methoxymethoxyethyl]pyrimidin-2-ylamine] had an IC50 above 20000 nM.

On to `CC(C(=O)N1CCCC1)n1cc(-c2cnc3[nH]cc(-c4cc(C(C)(O)c5ccccc5)nc(N)n4)c3c2)cn1` (stereo not drawn) [A14, 2-(4-{3-[2-amino-6-(1-hydroxy-1-phenylethyl)pyrimidin-4-yl]-1H-pyrrolo-[2,3-b]pyridin-5-yl}pyrazol-1-yl)-1-pyrrolidin-1-ylpropan-1-one], for which half-maximal inhibition (IC50) required 39 nM.

`COCOC(C)(c1ccccc1)c1cc(-c2c[nH]c3ncc(Br)cc23)nc(N)n1` (stereo not drawn) [A15, 4-(5-bromo-1H-pyrrolo[2,3-b]pyridin-3-yl)-6-(1-methoxymethoxy-1-phenylethyl)pyrimidin-2-ylamine] came in with an IC50 of 500 nM.

Regarding `CCCC(O)(c1ccccc1)c1cc(-c2c[nH]c3ncc(Br)cc23)nc(N)n1` (stereo not drawn) [A16, 1-[2-amino-6-(5-bromo-1H-pyrrolo[2,3-b]pyridin-3-yl)pyrimidin-4-yl]-1-phenylbutan-1-ol], it took 280 nM to reach half-maximal inhibition (IC50).

Consider `COCOC(C)(c1ccccc1)c1cc(-c2c[nH]c3ncc(-c4cnn(C)c4)cc23)nc(N)n1` (stereo not drawn) [A17, 4-(1-methoxymethoxy-1-phenylethyl)-6-[5-(1-methyl-1H-pyrazol-4-yl)-1H-pyrrolo[2,3-b]pyridin-3-yl]pyrimidin-2-ylamine], for which half-maximal inhibition (IC50) required 58 nM.

With `COCOC(C)(c1cc(-c2c[nH]c3ncc(Br)cc23)nc(N)n1)c1ccccc1C` (stereo not drawn) [A19, 4-(5-bromo-1H-pyrrolo[2,3-b]pyridin-3-yl)-6-(1-methoxymethoxy-1-o-tolylethyl)pyrimidin-2-ylamine], the IC50 was 1500 nM.

In turn, `COCOC(C)(c1cccc(C)c1)c1cc(-c2c[nH]c3ncc(-c4cnn(CCO)c4)cc23)nc(N)n1` (stereo not drawn) [A22, 2-(4-{3-[2-amino-6-(1-methoxymethoxy-1-m-tolylethyl)pyrimidin-4-yl]-1H-pyrrolo[2,3-b]pyridin-5-yl}pyrazol-1-yl)ethanol] returned an IC50 of 59 nM.

`COCOC(C)(c1cccc(C)c1)c1cc(-c2c[nH]c3ncc(-c4cnn(C)c4)cc23)nc(N)n1` (stereo not drawn) [A23, 4-(1-methoxymethoxy-1-m-tolylethyl)-6-[5-(1-methyl-1H-pyrazol-4-yl)-1H-pyrrolo[2,3-b]pyridin-3-yl]pyrimidin-2-ylamine] registered an IC50 of 130 nM.

With `Cn1cc(-c2cnc3[nH]cc(-c4cc(C(C)(O)c5cccnc5)nc(N)n4)c3c2)cn1` (stereo not drawn) [A24, 1-{2-amino-6-[5-(1-methyl-1H-pyrazol-4-yl)-1H-pyrrolo[2,3-b]pyridin-3-yl]-pyrimidin-4-yl}-1-pyridin-3-ylethanol], half-maximal inhibition (IC50) was put at 56 nM.

In turn, `COCOC(C)(c1ccccc1)c1cc(-c2c[nH]c3ncc(-c4cnn(C)c4)cc23)nc(N)n1` (stereo not drawn) [A25, 4-(1-methoxymethoxy-1-phenylethyl)-6-[5-(1-methyl-1H-pyrazol-4-yl)-1H-pyrrolo[2,3-b]pyridin-3-yl]pyrimidin-2-ylamine] showed an IC50 of 58 nM.

Compound `CCC(O)(c1cccnc1)c1cc(-c2c[nH]c3ncc(-c4cnn(C)c4)cc23)nc(N)n1` (stereo not drawn) [A26, 1-{2-amino-6-[5-(1-methyl-1H-pyrazol-4-yl)-1H-pyrrolo[2,3-b]pyridin-3-yl]-pyrimidin-4-yl}-1-pyridin-3-ylpropan-1-ol] yielded an IC50 of 43 nM.

Compound `COC(C)(c1ccccc1)c1cc(-c2c[nH]c3ncc(-c4cnn(CCO)c4)cc23)nc(N)n1` (stereo not drawn) [A27, 2-(4-{3-[2-amino-6-(1-methoxy-1-phenylethyl)pyrimidin-4-yl]-1H-pyrrolo-[2,3-b]pyridin-5-yl}pyrazol-1-yl)ethanol] gave an IC50 of 32 nM.

As to `CCC(O)(c1ccncc1)c1cc(-c2c[nH]c3ncc(-c4cnn(C)c4)cc23)nc(N)n1` (stereo not drawn) [A28, 1-{2-amino-6-[5-(1-methyl-1H-pyrazol-4-yl)-1H-pyrrolo[2,3-b]pyridin-3-yl]-pyrimidin-4-yl}-1-pyridin-4-ylpropan-1-ol], the midpoint of inhibition, the IC50, lay at 6.9 nM.
